Laboratory results: patent US7863415B2 (The Regents of the University of California, priority 2004, dated 2011)
Entries after “also recorded” stand apart in the source; their conditions may differ. Starred links: 1 amine or outer side, 2 acyl side, 3 side chain; linkers in the order of their positions; H or OH if unused. Non-standard residues stand in square brackets, D forms with d. Residues, ends and D or L forms follow the SMILES beside them. X1 = N=C(N)NC(=O)c1nc(Cl)c(N(CC(=O)[*:2])[*:1])nc1N

Tests used:
[1] = test system: U87 glioma cells; assay: Glioma cell proliferation, manual cell counts with trypan blue; format: cell-based, human
Protocol: C(5)-amiloride glycine conjugate (C5am-Gly) inhibits NHE1 in U87 glioma cells and is antiproliferative. […] The inhibitory activity of C5am-Gly against NCX was tested and a systematic log dose screen of C5am-Gly against a panel of glioma cells and primary astrocytes was performed.
Manual cell counts with dye exclusion assays. Identical concentrations of glioma cells can be plated on 60 mm dishes and grown until 50% confluent. Following drug treatments, media containing floating cells can be collected in suspension. Adherent cells can be rinsed in calcium- and magnesium-free phosphate-buffered saline (PBS-CMF) and removed by incubation with 0.25% v/v trypsin for 5 minutes (37° C.). Cell suspensions can be combined with the floating fraction and centrifuged at 350×g for 5 minutes. The resulting pellet (one per dish) can be resuspended in equal volumes of PBS-CMF with 0.4% trypan blue and/or 500 nM Sytox Green. 10 μL aliquots of the suspension can be plated on a hemocytometer, and cells can be counted 5 minutes after staining. Simultaneous staining of cells with trypan (TB) and Sytox Green (SG) can be visualized by switching between visible light and fluorescein green.

[2] = test system: U87 cells; assay: Intracellular translocation into U87 cells by fluorescence microscopy; details: 50 μM; 90 and 180 min; 380 nm excitation, 510 nm emission
Description: Fluorescence Microscopy. […] Excitation light was provided by a xenon arc lamp coupled to the Polychrome IV scanning monochromator (Till Photonics; Grafelfing, Germany) that alternately excites with different wavelengths. Excitation light was delivered by fiber optics to cells through the epifluorescence port of a Nikon E600 microscope coupled to a Nikon Fluor 60× water immersion lens. The detector was an Orca II-ER CCD digital camera (Hamamatsu USA; Bridgewater, N.J.), which is controlled by C-Imaging Simple PCI software (Compix; Cranberry Township, Pa.).
Intracellular emission intensities were collected in regions of interest (ROI) from an average of 4-8 cells/field using Simple PCI imaging software. […] Images were captured as TIFF files (C-imaging Simple PCI software), and light and fluorescent images of the same field were imported in Photoshop 6.0 and vector graphics added using Illustrator 9.0.1 (Adobe; San Jose, Calif.).

[3] = test system: enkephalinase (endopeptidase 24.11); assay: Enzyme digestion with enkephalinase, LC-MS/ESI; format: in vitro ADME, porcine; details: for Conclusion (Peptidase: Enkephalinase): 10 μM conjugate, 10 units enzyme, 25° C., pH 7.4, 24 h; for Cleavage by enkephalinase (release of compound 3a): 24 h incubation, LC-MS
Protocol: (§1) Compound 3b is a C5am-Gly-peptide conjugate containing two D-amino acids, and compound 3c is a C5am-Gly-peptide conjugate coupled to a peptide to generate an analog of opioid peptides that cross the blood brain barrier (BBB). The resultant conjugates (compounds 3a-c) were tested for selective cleavage by the brain peptidase enkephalinase (neutral endopeptidase 24.11; Calbiochem) via incubation for 24 h in the presence or absence of the enzyme, and aliquots from the reaction solutions were then analyzed by LC-MS to identify the C5am-Gly conjugate (compound 3a), starting material, and enzymatic cleavage products (see, Scheme 3). As negative control experiments, the conjugates were analyzed following treatment with (1) bovine pancreatic trypsin (Calbiochem) or (2) the buffer solutions without enzymes.
(§2) Enzyme digestion. Endopeptidase 24.11 (neutral, porcine kidney) and trypsin (bovine pancreas) were purchased from CalBiochem (San Diego, Calif.) and used as received. Enzymatic cleavage experiments using endopeptidase 24.11 were conducted at 25° C. in a pH 7.4 Tris buffer (150 mM NaCl, 50 mM Tris, 0.1% Triton X-100) as recommended by the manufacturer (see also, Barnes et al., J. Neurochem., 64:1826-1832 (1995), Gafford et al., Biochemistry, 22:3265-3271 (1983)). Similarly, trypsin cleavage experiments were conducted at 25° C. in pH 7.4 Dulbecco's phosphate buffered saline (Gibco; Grand Island, N.Y.). The digestion reactions included 10 μM of the amiloride-peptide conjugate and 10 units of enzyme in 250 μL of buffer. Direct aliquots were analyzed by LC-MS/ESI following a 24 hour incubation period.
(§3) Enzyme Digestion Study. Compounds 3a-d were each incubated at 25° C. with 10 units of enkephalinase (endopeptidase 24.11) to determine their susceptibility towards enzymatic cleavage. Reaction aliquots were taken following a 24 hour incubation period and analyzed directly by LC-MS/ESI (Thermo Finnigan LCQ) for the presence of the starting material and the targeted cleavage product, compound 3a (C5am-Gly). […] Since there are no basic amino acid residues in compounds 3a-d, trypsin was employed as a negative control to ensure that any observed cleavage products could be ascribed only to endopeptidase-specific interactions (Jackson, Protein Science, 8:603-613 (1999)).

[4] = molecular target: T1, trypsin (Bos taurus, UniProt P00760); assay: Enzyme digestion with trypsin (negative control), LC-MS/ESI; format: in vitro ADME, bovine; details: for Conclusion (Peptidase: Trypsin): 10 μM conjugate, 10 units enzyme, 25° C., pH 7.4, 24 h; for Cleavage by trypsin (release of compound 3a): 24 h incubation, LC-MS
T1 construct: purchased CalBiochem (San Diego, Calif.); host or cells: bovine pancreas
T1 sequence (P00760 24-246): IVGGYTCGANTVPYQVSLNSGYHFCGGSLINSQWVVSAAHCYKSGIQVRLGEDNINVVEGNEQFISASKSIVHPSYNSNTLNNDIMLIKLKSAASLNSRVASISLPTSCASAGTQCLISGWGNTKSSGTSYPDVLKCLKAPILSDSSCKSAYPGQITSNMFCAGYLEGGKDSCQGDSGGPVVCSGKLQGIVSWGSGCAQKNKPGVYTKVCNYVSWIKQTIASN
Protocol: as §1, §2, §3

[5] = Incubation in buffer solutions without enzymes, LC-MS; format: in vitro ADME
Protocol: as §1

[6] = molecular target: NHE1 (Homo sapiens, UniProt P19634); assay: NHE1 inhibition: sodium-dependent pHi recovery in BCECF-loaded U87 glial cells after ammonium chloride pre-pulse; format: cell-based; set-up: Sodium-dependent proton extrusion in U87 glial cells and in primary astrocytes is mediated by the type 1 sodium proton exchanger (NHE1); endogenous in cells; host or cells: U87 human glioma cells
Sequence of NHE1 (P19634 whole entry): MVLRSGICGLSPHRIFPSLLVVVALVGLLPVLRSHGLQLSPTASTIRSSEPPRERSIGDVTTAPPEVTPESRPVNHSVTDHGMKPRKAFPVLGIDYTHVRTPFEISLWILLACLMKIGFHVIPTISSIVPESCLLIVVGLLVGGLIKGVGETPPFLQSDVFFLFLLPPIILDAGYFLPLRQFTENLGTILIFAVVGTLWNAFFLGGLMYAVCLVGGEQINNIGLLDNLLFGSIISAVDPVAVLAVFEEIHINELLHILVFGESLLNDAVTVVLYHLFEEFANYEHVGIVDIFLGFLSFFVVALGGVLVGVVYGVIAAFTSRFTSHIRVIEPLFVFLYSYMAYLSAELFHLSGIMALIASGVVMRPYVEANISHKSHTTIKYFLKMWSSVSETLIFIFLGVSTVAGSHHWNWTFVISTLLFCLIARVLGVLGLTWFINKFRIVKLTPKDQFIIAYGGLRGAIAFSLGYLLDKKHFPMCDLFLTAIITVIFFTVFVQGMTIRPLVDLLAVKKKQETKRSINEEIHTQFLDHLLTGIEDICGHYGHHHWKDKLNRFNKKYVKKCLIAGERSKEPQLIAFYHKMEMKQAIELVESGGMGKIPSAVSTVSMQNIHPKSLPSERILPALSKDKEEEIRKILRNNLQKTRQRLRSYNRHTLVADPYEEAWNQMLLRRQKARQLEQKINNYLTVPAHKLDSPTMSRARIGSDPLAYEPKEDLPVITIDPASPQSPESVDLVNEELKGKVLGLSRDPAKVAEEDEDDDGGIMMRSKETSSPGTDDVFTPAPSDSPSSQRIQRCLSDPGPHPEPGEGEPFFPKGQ
Protocol: Intracellular pH Measurements. U87 glial cells were grown on glass coverslips and incubated for 30 minutes at 37° C. with the pH-sensitive dye, 2′,7′-bis(2-carboxyethyl)-5(6)-carboxyfluorescein-AM (BCECF-AM; Molecular Probes, OR). Cells were rinsed with HEPES Ringer buffer twice and maintained at 37° C. for an additional 15 minutes to permit intracellular hydrolysis of the AM ester; trapping BCECF within the cells. Cells on coverslips were placed in a Hitachi F2000 fluorescent spectrophotometer and excited at 440 and 507 nm with fluorescent emissions recorded at 535 nm (Hegde et al., J. Pharmacol. Exp. Ther., 310:67-74 (2004)).
NHE inhibition by compounds 3a and 3c was evaluated using intracellular pH (pHi) measurements in the U87 human glial cell line (Hegde et al., supra). Cells loaded with BCECF were then acidified using the ammonium chloride pre-pulse method (Roos et al., Physiol Rev, 61:296-434 (1981)). The subsequent sodium-dependent recovery of pHi by these cells in the absence of bicarbonate was monitored using a spectrofluorometer. Sodium-dependent proton extrusion in U87 glial cells and in primary astrocytes is mediated by the type 1 sodium proton exchanger (NHE1) (McLean et al., supra; Hegde et al., supra) and was monitored in the presence or absence of compound 3a or 3c.
IC50 drug determinations for NHE1. This method utilizes spectrofluorometric measurements of [H^+]i as described above. The ammonium chloride prepulse method can be used to acidify cells in the presence of HR that is sodium-substituted with NMDG. Perfusion of the acidified cells with HR that contains sodium causes activation of NHE1 that is inhibited in a concentration-dependent fashion as described in McLean et al., supra.

[7] = test system: [Ca^2+]i in U87 glioma cells; assay: [Ca2+]i in U87 glioma cells loaded with fura-2AM, quantitative fluorescent microscopy; format: cell-based, human
Protocol: Therefore, the levels of [Ca^2+]i in U87 glioma cells loaded with fura-2AM were measured using quantitative fluorescent microscopy. […] The ATP-dependent calcium regulatory mechanisms within U87 glioma cells containing fura-2 were then examined. […] ATP synthase operates in reverse when milimolar concentrations of calcium are stored by the mitochondrion (Nicholls, Bioenergetics, 3, Academic Press, London, 3rd edition (2002)).
Quantitative fluorescent microscopy of [Ca^2+]i levels. [Ca^2+]i levels can be measured in cells loaded with either fura-2A or fura-2FFAM under the conditions described above.

[8] = test system: glioma in poorly vascularized tumor regions; assay: Single intracerebral infusion of DCB in tumor-bearing animals; format: in vivo; details: 10 pmol over 2 h
Protocol: Unfortunately, DCB was associated with 4 of 5 animals dying during the following 12 to 24 h.

[9] = test system: glioma cells and primary astrocytes; assay: Cell entry by confocal microscopy; format: in vitro ADME
[10] = test system: NHE1 and NCX; details: NHE1 and NCX inhibitors from the literature; cited from earlier work
[11] = test system: U87 glioma cells; assay: Glioma cell death, manual cell counts with trypan blue exclusion
[12] = test system: T2, Compound 3b (C5am-Gly-D-Ala-Gly-Phe-D-Leu-OH)
T2 sequence: GXGFX

[13] = test system: T3, Compound 3c (C5am-Gly-Gly-Gly-Gly-Phe-Leu-OH)
T3 sequence: GGGGFL

[14] = test system: T4, Compound 3d (C5am conjugate of the peptide Gly-Gly-Gly-Phe-Leu)
T4 sequence: GGGFL

## N=C(N)NC(=O)c1nc(Cl)c(NCC(=O)O)nc1N [Compound 3a]
[1]; glioma cells
  Glioma Effect: antiproliferative concentration: ≦100 μM antiproliferative
[1]; ≦100 μM, 48 h
  Proliferation of U87 glioma cells, % of stage-matched controls: 22%
[2]
  Intracellular accumulation in U87 cells: no intracellular fluorescence above mean intracellular background; also recorded: failed to detect; also recorded: did not accumulate
[3]
  Conclusion (Peptidase: Enkephalinase): Enkephalinase resistant
  Cleavage by enkephalinase (release of compound 3a): unaffected; also recorded: stable
[4]
  Conclusion (Peptidase: Trypsin): Trypsin resistant
  Cleavage by trypsin (release of compound 3a): unaffected; also recorded: stable
[5]
  Stability in control (buffer) digestion: unaffected
[6]; U87 glial cells, sodium-dependent pHi recovery without bicarbonate, read-out: IC50 (μM) +/− SD (NHE inhibition)
  IC50: 13 ± 7 µM

## CC(C)C[C@@H](NC(=O)[C@H](Cc1ccccc1)NC(=O)CNC(=O)[C@@H](C)NC(=O)CNc1nc(N)c(C(=O)NC(=N)N)nc1Cl)C(=O)O [Compound 3b, C5am-Gly-D-Ala-Gly-Phe-D-Leu-OH] (H-[X1][dA]GF[dL]-OH)
[3]
  Conclusion (Peptidase: Enkephalinase): Enkephalinase resistant
  Cleavage by enkephalinase (release of compound 3a): not cleaved; also recorded: resistant
[4]
  Conclusion (Peptidase: Trypsin): Trypsin resistant
  Cleavage by trypsin (release of compound 3a): not cleaved; also recorded: resistant
[5]
  Stability in control (buffer) digestion: not cleaved

## N=C(NCc1ccc(Cl)cc1Cl)NC(=O)c1nc(Cl)c(N)nc1N [DCB, 2,4-dichlorobenzamil]
[7]; U87 glioma cells, FCCP or oligomycin
  Effect of pretreatment on [Ca2+]i after calcium release from mitochondrial stores: increase to cytotoxic levels
[7]; pretreatment followed by oligomycin or FCCP
  Persistent increase of [Ca2+]i: > 800 nM
[8]
  Animals dying during the following 12 to 24 h: 4 of 5
  Glioma death within poorly vascularized tumor regions (histology): extensive glioma death
[9]
  Time to enter glioma cells and primary astrocytes: ≤ 150 min
[10]
  Rel. Activity: NCX > NHE
[11]; U87 glioma cells, C2am-Gly within 24 h
  Concentration that killed U87 glioma cells: 15 µM
[11]; glioma cells
  Glioma Effect: cytotoxic concentration: 15 μM cytotoxic
[11]; glioma cells, amiloride within 48-72 hours
  Concentration that killed glioma cells: ≥ 20 µM
[6]; U87 glioma cells loaded with BCECF
  Concentration that inhibits NHE1 and reduces pHi: 50-100 nM

## Enkephalinase (neutral endopeptidase 24.11, porcine kidney; CalBiochem)
[12]
  Enzymatic digestion, LC-MS fragments at 24 h; Conclusion: Enkephalinase resistant
[13]
  Enzymatic digestion, LC-MS fragments at 24 h; Conclusion: Enkephalinase-mediated release of 3a
[14]
  Enzymatic digestion, LC-MS fragments at 24 h; Conclusion: Enkephalinase resistant
